Converted amounts (≈) assume the structure as drawn. The source made the active and inactive calls. The calls are words filed in the database; no cut-off is given here. Bridge positions count the residues as written; N and C are the ends. Square brackets hold non-standard residues; d marks the D form. Peptide text beside a SMILES is read from it. S5 = C=CCCC[C@](C)(N)C(=O)O
What was measured:
Klebsiella pneumoniae [1] = assay: Antibacterial activity against Klebsiella pneumoniae ATCC 13883 assessed as inhibition of bacterial growth measured after 24 hrs by broth microdilution method; type: functional
Pseudomonas aeruginosa [2] = assay: Antibacterial activity against Pseudomonas aeruginosa PAO1 assessed as inhibition of bacterial growth measured after 24 hrs by broth microdilution method; type: functional
Acinetobacter baumannii = assay: Antibacterial activity against Pandrug-resistant Acinetobacter baumannii assessed as inhibition of bacterial growth measured after 24 hrs by broth microdilution method; type: functional
Klebsiella pneumoniae [3] = assay: Antibacterial activity against Carbapenem-resistant Klebsiella pneumoniae assessed as inhibition of bacterial growth measured after 24 hrs by broth microdilution method; type: functional
Pseudomonas aeruginosa [4] = assay: Antibacterial activity against Pandrug-resistant Pseudomonas aeruginosa assessed as inhibition of bacterial growth measured after 24 hrs by broth microdilution method; type: functional
Salmonella typhimurium = assay: Antibacterial activity against Salmonella typhimurium assessed as inhibition of bacterial growth measured after 24 hrs by broth microdilution method; type: functional, Salmonella enterica subsp. enterica serovar Typhimurium; details: Salmonella enterica
[5] = Stability of the compound in human serum assessed as peptide degradation by RP-HPLC analysis; type: ADME, cell-free; details: read-out: T50 (converted)
[6] = Stability of the compound in human serum assessed as retention time by RP-HPLC analysis; type: ADME, cell-free
[7] = Stability of the compound in human serum assessed as remaining peptide by RP-HPLC analysis; type: ADME, cell-free
Cell membrane = assay: Induction of Outer membrane damage in Escherichia coli assessed as pore formation and surface rupture at 5 uM measured after 24 hrs by SEM imaging analysis; type: subcellular
Escherichia coli [8] = assay: Induction of metabolism related pathways in Escherichia coli assessed as lipid metabolism pathway mRNAs at 12.5 uM measured after 2 hrs incubation by PCR analysis; type: functional, organism-based
Escherichia coli [9] = assay: Induction of metabolism related pathways in Escherichia coli assessed as energetic metabolism pathway mRNAs at 12.5 uM measured after 2 hrs incubation by PCR analysis; type: functional, organism-based
Escherichia coli [10] = assay: Induction of multiple envelope stress pathway related pathways in Escherichia coli assessed as change in WcaL gene expression at 12.5 uM measured after 2 hrs incubation by PCR analysis; type: functional, organism-based
Escherichia coli [11] = assay: Induction of multiple envelope stress pathway related pathways in Escherichia coli assessed as change in WcaB gene expression at 12.5 uM measured after 2 hrs incubation by PCR analysis; type: functional, organism-based
Escherichia coli [12] = assay: Induction of multiple envelope stress pathway related pathways in Escherichia coli assessed as change in WcaC gene expression at 12.5 uM measured after 2 hrs incubation by PCR analysis; type: functional, organism-based
Escherichia coli [13] = assay: Induction of outer membrane synthesis related pathways in Escherichia coli assessed as change in OmpG gene expression at 12.5 uM measured after 2 hrs incubation by PCR analysis; type: functional, organism-based
Escherichia coli [14] = assay: Induction of outer membrane synthesis related pathways in Escherichia coli assessed as change in OmpC gene expression at 12.5 uM measured after 2 hrs incubation by PCR analysis; type: functional, organism-based
Escherichia coli [15] = assay: Induction of outer membrane synthesis related pathways in Escherichia coli assessed as change in OmpX gene expression at 12.5 uM measured after 2 hrs incubation by PCR analysis; type: functional, organism-based
Escherichia coli [16] = assay: Induction of outer membrane synthesis related pathways in Escherichia coli assessed as change in OmpT gene expression at 12.5 uM measured after 2 hrs incubation by PCR analysis; type: functional, organism-based
Escherichia coli [17] = assay: Induction of assembly related pathways in Escherichia coli assessed as change in OmpW gene expression at 12.5 uM measured after 2 hrs incubation by PCR analysis; type: functional, organism-based
Escherichia coli [18] = assay: Induction of assembly related pathways in Escherichia coli assessed as change in BamD gene expression at 12.5 uM measured after 2 hrs incubation by PCR analysis; type: functional, organism-based
Escherichia coli [19] = assay: Induction of assembly related pathways in Escherichia coli assessed as change in BamB gene expression at 12.5 uM measured after 2 hrs incubation by PCR analysis; type: functional, organism-based
Escherichia coli [20] = assay: Induction of LPS transport pathway related genes in Escherichia coli assessed as change in LptE gene expression at 12.5 uM measured after 2 hrs incubation by PCR analysis; type: functional, organism-based
Escherichia coli [21] = assay: Induction of LPS transport pathway related genes in Escherichia coli assessed as change in LptG gene expression at 12.5 uM measured after 2 hrs incubation by PCR analysis; type: functional, organism-based
[22] = Toxicity in C57BL/6 mouse assessed as death at 25 mg/kg, ip measured during 14 days of study; type: organism-based; details: in vivo, 336 h, time 14 day
[23] = Toxicity in C57BL/6 mouse assessed as increase in body weight at 25 mg/kg, ip measured during 14 days of study; type: organism-based; details: in vivo, 336 h, time 14 day
[24] = Toxicity in C57BL/6 mouse assessed as death at 50 mg/kg, ip measured on day 4; type: organism-based; details: in vivo, 96 h, time 4 day
[25] = Toxicity in C57BL/6 female mouse assessed as apparent inflammatory exudates ([…], neutrophiles, macrophages) in lungs at 25 mg/kg, ip measured during 14 days of study by H and E staining based analysis; type: organism-based; details: in vivo, 336 h, time 14 day
[26] = Toxicity in C57BL/6 female mouse assessed as juxtaglomerular cells and interstitial fibrous tissues in kidney at 25 mg/kg, ip measured during 14 days of study by H and E staining based analysis; type: organism-based; details: in vivo, 336 h, time 14 day
[27] = Toxicity in C57BL/6 female mouse assessed as haemorrhagic point and blurred white pulp boundary in liver at 25 mg/kg, ip measured during 14 days of study by H and E staining based analysis; type: organism-based; details: in vivo, 336 h, time 14 day
[28] = Toxicity in C57BL/6 female mouse assessed as haemorrhagic point and blurred white pulp boundary in spleen at 25 mg/kg, ip measured during 14 days of study by H and E staining based analysis; type: organism-based; details: in vivo, 336 h, time 14 day
Escherichia coli [29] = assay: In vivo antibacterial activity against Escherichia coli intraperitoneally injected into C57BL/6 mouse peritonitis model assessed as mouse survival at 2.5 mg/kg, ip measured after 48 hrs relative to control; type: functional
Escherichia coli [30] = assay: In vivo antibacterial activity against Escherichia coli intraperitoneally injected into C57BL/6 mouse peritonitis model assessed as reduction in bacterial load in liver at 2.5 mg/kg, ip measured after 48 hrs relative to control; type: functional, organism-based
Escherichia coli [31] = assay: In vivo antibacterial activity against Escherichia coli intraperitoneally injected into C57BL/6 mouse peritonitis model assessed as reduction in bacterial load in spleen at 2.5 mg/kg, ip measured after 48 hrs relative to control; type: functional, organism-based
Escherichia coli [32] = assay: In vivo antibacterial activity against Escherichia coli intraperitoneally injected into C57BL/6 mouse peritonitis model assessed as reduction in bacterial load in kidney at 2.5 mg/kg, ip measured after 48 hrs relative to control; type: functional, organism-based
Mus musculus [33] = assay: In vivo anti-inflammatory efficacy in Escherichia coli intraperitoneally injected into C57BL/6 mouse peritonitis model assessed as reduction in IL-1beta level in blood at 2.5 mg/kg, ip measured after 48 hrs by ELISA; type: functional, organism-based
Mus musculus [34] = assay: In vivo anti-inflammatory efficacy in Escherichia coli intraperitoneally injected into C57BL/6 mouse peritonitis model assessed as reduction in IL-6 level in blood at 2.5 mg/kg, ip measured after 48 hrs by ELISA; type: functional, organism-based
Mus musculus [35] = assay: In vivo anti-inflammatory efficacy in Escherichia coli intraperitoneally injected into C57BL/6 mouse peritonitis model assessed as reduction in TNF-alpha level in blood at 2.5 mg/kg, ip measured after 48 hrs by ELISA; type: functional, organism-based

## CC[C@H](C)[C@H](NC(=O)CNC(=O)[C@H](CC(=O)O)NC(=O)[C@H](CCCNC(=N)N)NC(=O)[C@@H](NC(=O)[C@H](CC(N)=O)NC(=O)[C@H](CCC(N)=O)NC(=O)CNC(=O)[C@@H](NC(=O)[C@H](CCCCN)NC(=O)[C@H](CCC(=O)O)NC(=O)[C@@H](NC(=O)[C@H](CCCCN)NC(=O)[C@H](CCCCN)NC(=O)[C@H](Cc1ccccc1)NC(=O)[C@H](CC(C)C)NC(=O)[C@H](CCCCN)NC(=O)[C@H](Cc1c[nH]c2ccccc12)NC(=O)[C@H](CCCCN)NC(C)=O)[C@@H](C)CC)C(C)C)[C@@H](C)CC)C(=O)N[C@H](C(=O)N[C@@H](CCCCN)C(=O)N[C@@H](C)C(=O)NCC(=O)N1CCC[C@H]1C(=O)N[C@@H](C)C(=O)N[C@H](C(=O)N[C@@H](C)C(=O)N[C@H](C(=O)N[C@H](C(=O)NCC(=O)N[C@@H](CCC(N)=O)C(=O)N[C@@H](C)C(=O)N[C@@]1(C)CCC/C=C\CCC[C@@](C)(C(N)=O)NC(=O)[C@H](C)NC(=O)[C@H]([C@@H](C)CC)NC(=O)[C@H](CCC(N)=O)NC1=O)C(C)C)C(C)C)C(C)C)[C@@H](C)CC (Ac-KWKLFKKIEKVGQNIRDGIIKAGPAVAVVGQA[S5]QIA[S5]-NH2; staple (Z) 33-37)
Klebsiella pneumoniae [1]
  MIC: 3.13 µM (≈ 12.7 µg/mL)
Pseudomonas aeruginosa [2]
  MIC: 6.25 µM (≈ 25.4 µg/mL)
Acinetobacter baumannii
  MIC: < 0.78 µM
Klebsiella pneumoniae [3]
  MIC: 6.25 µM (≈ 25.4 µg/mL)
Pseudomonas aeruginosa [4]
  MIC: 12.5 µM (≈ 50.8 µg/mL)
Salmonella typhimurium
  MIC: 3.13 µM (≈ 12.7 µg/mL)
[5]
  half-life: 9.85 h
[6]
  Retention_time: 25.17 min
[7]
  Stability: > 50%
Cell membrane
  Activity: Active
Escherichia coli [8]
  Activity: Active
Escherichia coli [9]
  Activity: Active
Escherichia coli [10]
  Activity: Active
Escherichia coli [11]
  Activity: Active
Escherichia coli [12]
  Activity: Active
Escherichia coli [13]
  Activity: Active
Escherichia coli [14]
  Activity: Active
Escherichia coli [15]
  Activity: Active
Escherichia coli [16]
  Activity: Active
Escherichia coli [17]
  Activity: Active
Escherichia coli [18]
  Activity: Active
Escherichia coli [19]
  Activity: Active
Escherichia coli [20]
  Activity: Active
Escherichia coli [21]
  Activity: Active
[22]
  Activity: Non-toxic
[23]
  Activity: Toxic
[24]
  Activity: Toxic
[25]
  Activity: Non-toxic
[26]
  Activity: Non-toxic
[27]
  Activity: Non-toxic
[28]
  Activity: Non-toxic
Escherichia coli [29]
  Activity: 67%
Escherichia coli [30]
  Activity: Active; Compound Showed Enhanced Bacterial Elimination Than Cec-0 And Compound Showed Comparable Bacterial Elimination To Polymyxin B
Escherichia coli [31]
  Activity: Active; Compound Showed Enhanced Bacterial Elimination Than Cec-0
Escherichia coli [32]
  Activity: Active; Compound Showed Enhanced Bacterial Elimination Than Cec-0 And Compound Showed Comparable Bacterial Elimination To Polymyxin B
Mus musculus [33]
  Activity: Active
Mus musculus [34]
  Activity: Active
Mus musculus [35]
  Activity: Active

From ChEMBL document CHEMBL6115030, “Systematic All-Hydrocarbon Stapling Analysis for Cecropin A Generates a Potent and Stable Antimicrobial Peptide” (J Med Chem, 2025)
